From ChEMBL document CHEMBL5042522, “One- and Two-Photon Uncaging of Carbon Monoxide (CO) with Real-Time Monitoring: On-Demand Carbazole-Based Dual CO-Releasing Platform to Test over Single and Combinatorial Approaches for the Efficient Regression of Orthotopic Murine Melanoma In Vivo” (J Med Chem, 2022)
Activity calls are given as the source filed them. The calls are words filed in the database; no cut-off is given here.

Columns and labels:
B16-F10 [1] = assay: Photorelease activity in mouse B16-F10 cells assessed as uncaging of active molecules of drug by measuring green fluorescence at 20 uM incubated for 4 hrs irradiated with >= 365 nm Hg lamp for 5 mins and further incubated for 4 hrs by propidium iodide staining based confocal laser scanning microscopy; format: functional, cell-based; settings: time 8.0 hrs
B16-F10 [2] = assay: Cytotoxicity against mouse B16-F10 cells assessed as cell viability at 2.5 uM irradiated with >= 365 nm Hg lamp for 5 mins after 6 hrs post-treatment and further incubated for 72 hrs by MTT assay; format: functional; settings: B16-F10, light or radiation study, time 78 hrs, read-out: Activity
B16-F10 [3] = assay: Antitumor activity against mouse B16-F10 cells bearing C57BL/6J mouse assessed as tumor growth inhibition at 0.4 mg/kg, iv administered alternate days for 24 days followed by irradiation with pulsed laser at 730 nm for 10 mins after 24 hrs each post-injection by slide caliper method; format: functional, organism-based; settings: time 25.0 day
HEK293 [4] = assay: Induction of apoptosis in HEK293 cells assessed as necrotic cells at 5 uM with light irradiation incubated for 24 hrs by annexin-V-FITC and PI staining based flow cytometry analysis (reference value: 0 %); format: functional, Homo sapiens
[5] = Toxicity in C57BL/6J mouse model harboring mouse B16-F10 cells assessed as change in body weight at 0.4 mg/kg, iv administered alternate days for 24 days followed by irradiation with pulsed laser at 730 nm for 10 mins after 24 hrs each post-injection; format: organism-based; settings: in vivo, 600 h, 0.73 µM, time 25 day
HEK293 [6] = assay: Induction of apoptosis in HEK293 cells assessed as necrotic cells at 5 uM incubated for 24 hrs by annexin-V-FITC and PI staining based flow cytometry analysis (reference value: 0 %); format: functional, Homo sapiens
[7] = Biodistribution in kidney of C57BL/6 mouse model harboring mouse B16-F10 cells at 0.4 mg/kg, iv irradiated with >= 365 nm Hg lamp for 10 mins measured after 24 hrs post-administration by fluorescence based assay; format: ADME, organism-based; settings: in vivo, 24.17 h, time 1450 min
[8] = Toxicity in C57BL/6J mouse model harboring mouse B16-F10 cells assessed as tumor tissue necrosis at 0.4 mg/kg, iv administered alternate days for 24 days followed by irradiation with pulsed laser at 730 nm for 10 mins after 24 hrs each post-injection by hematoxylin and eosin staining based assay; format: organism-based; settings: in vivo, 600 h, 0.73 µM, time 25 day
[9] = Photorelease ability in PBS buffer at pH 7.4 assessed as compound decomposition at 0.1 mM irradiated with pulsed laser at 730 nm for 30 mins by RP-HPLC analysis; format: physicochemical; settings: read-out: Drug degradation
[10] = Toxicity in C57BL/6J mouse model harboring mouse B16-F10 cells assessed as spleen tissue necrosis at 0.4 mg/kg, iv administered alternate days for 24 days followed by irradiation with pulsed laser at 730 nm for 10 mins after 24 hrs each post-injection by hematoxylin and eosin staining based assay; format: organism-based; settings: in vivo, 600 h, 0.73 µM, time 25 day
HEK293 [11] = assay: Induction of apoptosis in HEK293 cells assessed as viable cells at 5 uM with light irradiation incubated for 24 hrs by annexin-V-FITC and PI staining based flow cytometry analysis (reference value: 99.9 %); format: functional; settings: Homo sapiens, HEK293, light or radiation study, read-out: Activity
B16-F10 [12] = assay: Induction of apoptosis in mouse B16-F10 cells assessed as necrotic cells at 5 uM with light irradiation incubated for 24 hrs by annexin-V-FITC and PI staining based flow cytometry analysis (reference value: 0 %); format: functional
B16-F10 [13] = assay: Induction of apoptosis in mouse B16-F10 cells assessed as necrotic cells at 5 uM incubated for 24 hrs by annexin-V-FITC and PI staining based flow cytometry analysis (reference value: 0 %); format: functional
[14] = Toxicity in C57BL/6J mouse model harboring mouse B16-F10 cells assessed as change in movement at 0.4 mg/kg, iv administered alternate days for 24 days followed by irradiation with pulsed laser at 730 nm for 10 mins after 24 hrs each post-injection by hematoxylin and eosin staining based assay; format: organism-based; settings: in vivo, 600 h, 0.73 µM, time 25 day
[15] = Photorelease activity in PBS buffer at pH 7.4 assessed as release of CO using 3',6'-Bis(allyloxy)-3H-spiro(isobenzofuran-1,9'-xanthen)-3-one fluorescent probe at 500 uM irradiated with >= 365 nm Hg lamp for 30 mins in presence of PdCl2 by absorption spectroscopy; format: physicochemical; settings: pH 7.4, 0.5 h
[16] = Biodistribution in lung of C57BL/6 mouse model harboring mouse B16-F10 cells at 0.4 mg/kg, iv irradiated with >= 365 nm Hg lamp for 10 mins measured after 24 hrs post-administration by fluorescence based assay; format: ADME, organism-based; settings: in vivo, 24.17 h, time 1450 min
[17] = Toxicity in C57BL/6J mouse model harboring mouse B16-F10 cells assessed as kidney tissue necrosis at 0.4 mg/kg, iv administered alternate days for 24 days followed by irradiation with pulsed laser at 730 nm for 10 mins after 24 hrs each post-injection by hematoxylin and eosin staining based assay; format: organism-based; settings: in vivo, 600 h, 0.73 µM, time 25 day
B16-F10 [18] = assay: Induction of apoptosis in mouse B16-F10 cells assessed as viable cells at 5 uM incubated for 24 hrs by annexin-V-FITC and PI staining based flow cytometry analysis (reference value: 99.9 %); format: functional; settings: read-out: Activity
[19] = Photorelease ability in PBS buffer at pH 7.4 assessed as compound decomposition at 100 uM irradiated with >= 365 nm Hg lamp upto 30 mins by UV absorption spectroscopy; format: physicochemical; settings: read-out: Drug degradation
[20] = Stability of compound in PBS buffer at pH 7.4 at 100 uM incubated for 72 hrs under dark condition by RP-HPLC analysis; format: physicochemical; settings: read-out: Stability
[21] = Photorelease activity in PBS buffer at pH 7.4 assessed as release of CO in absence of light irradiation by absorption spectroscopy; format: physicochemical
HEK293 [22] = assay: Induction of apoptosis in HEK293 cells assessed as late apoptotic cells at 5 uM incubated for 24 hrs by annexin-V-FITC and PI staining based flow cytometry analysis (reference value: 0 %); format: functional, Homo sapiens
[23] = Toxicity in C57BL/6J mouse model harboring mouse B16-F10 cells assessed as heart tissue necrosis at 0.4 mg/kg, iv administered alternate days for 24 days followed by irradiation with pulsed laser at 730 nm for 10 mins after 24 hrs each post-injection by hematoxylin and eosin staining based assay; format: organism-based; settings: in vivo, 600 h, 0.73 µM, time 25 day
B16-F10 [24] = assay: Induction of apoptosis in mouse B16-F10 cells assessed as late apoptotic cells at 5 uM incubated for 24 hrs by annexin-V-FITC and PI staining based flow cytometry analysis (reference value: 0.1 %); format: functional
B16-F10 [25] = assay: Induction of apoptosis in mouse B16-F10 cells assessed as early apoptotic cells at 5 uM incubated for 24 hrs by annexin-V-FITC and PI staining based flow cytometry analysis (reference value: 0 %); format: functional

CCn1c2ccc(-c3coc(=O)o3)cc2c2cc(-c3coc(=O)o3)ccc21
Drug metabolism (B16-F10 [1]): 100%
viability at 2.5 µM (B16-F10 [2]): 21%
Activity (B16-F10 [3]): Active
Activity (HEK293 [4]): 0%
Activity [5]: Non-Toxic
Activity (HEK293 [6]): 0%
Drug uptake [7]: Active
Activity [8]: Toxic
degraded at 0.5 h, 100 µM [9]: 37%
Activity [10]: Non-Toxic
viability at 5 µM (HEK293 [11]): 46.4%
Activity (B16-F10 [12]): 0.5%
Activity (B16-F10 [13]): 0%
Activity [14]: Non-Toxic
Drug metabolism [15]: 12 ppm
Drug uptake [16]: Active
Activity [17]: Non-Toxic
viability at 5 µM (B16-F10 [18]): 99%
degraded at 0.5 h, 100 µM [19]: 100%
remaining at 72 h, 100 µM [20]: 96%
Drug metabolism [21]: Not Active
Activity (HEK293 [22]): 0.2%
Activity [23]: Non-Toxic
Activity (B16-F10 [24]): 0%
Activity (B16-F10 [25]): 1%
